Tests used:
[1] = test system: HIV-1 US4 (GS 007); assay: microbe, parasite or virus in culture; type: cell-based; conditions: Human immunodeficiency virus 1, primary strain US4 (GS 007), luciferase readout, mean ± SD
Protocol: (§1) The HIV-1 replication-inhibiting activity of compounds was determined as previously described ([Li et al., 2013]). Briefly, 1 × 10^4 TZM-bl or MT-2 cells were infected with primary HIV-1 strains or T20-resistant HIV-1 strains (100 TCID50) in 200 µl of RPMI-1640 medium containing 10% FBS in the presence or absence of compounds at graded concentrations for 12 h. The culture medium was replaced with fresh medium without the compounds. After culture for an additional 48 h, supernatants or cells were collected from each well. For the primary HIV-1 strains, the cells were treated using a luciferase kit. Briefly, the cells were lysed with the lysis reagent and were transferred into a 96-well flat-bottom luminometer plate after three washes with phosphate-buffered saline (PBS) (Costar Corning Inc., Corning, NY), followed by addition of the luciferase substrate included in the luciferase kit (Promega Corp., Madison, WI). The luciferase activity was measured immediately by an Ultra 384 microplate reader (Tecan, Research Triangle Park, NC). T20 was used as a positive control. For the T20-resistant HIV-1 strains, 100 µl of culture supernatant was mixed with 100 µl of 5% Triton X-100. Then, those virus lysates were assayed for p24 antigen by enzyme linked immunosorbent assay (ELISA) as previously described ([Li et al., 2010]). Absorbance at 450 nm was recorded in an ELISA reader (Ultra 384, Tecan). EC50 values were calculated using the computer program CalcuSyn ([Chou and Talalay, 1984]).

[2] = test system: HIV-1 93/BR/020; assay: microbe, parasite or virus in culture; type: cell-based; conditions: Human immunodeficiency virus 1, primary strain 93/BR/020, luciferase readout, mean ± SD
Protocol: as §1

[3] = test system: HIV-1 BCF02; assay: microbe, parasite or virus in culture; type: cell-based; conditions: Human immunodeficiency virus 1, primary strain BCF02, luciferase readout, mean ± SD
Protocol: as §1

[4] = test system: HIV-1 NL4-3D36G; type: cell-based; conditions: T20-sensitive parent strain, p24 ELISA, mean ± SD
[5] = test system: HIV-1 NL4-3(36G)V38A; conditions: T20-resistant NL4-3(36G)V38A; p24 ELISA; mean ± SD
[6] = XTT assay, MT-2 cells; type: cell-based; conditions: human
Protocol: (§2) The in vitro cell viability of NSPD-12m on HIV-1 target cells (U87-CD4-CXCR4, U87-CD4-CCR5, TZM-bl, and MT-2 cells) and HIV effector cells (CHO-WT cells) was analyzed by an XTT colorimetric assay. Briefly, 100 µl of 5 × 10^5/ml cells was mixed and incubated with 100 µl of NSPD-12m at graded concentrations at 37°C for 3 days. Then, 50 µl of XTT solution (1 mg/ml) containing 0.02 µM of phenazinemethosulphate (PMS) was added to each well, and the cells were incubated at 37°C for another 4 h. The absorbance at 450 nm was measured with an ELISA reader. The 50% cytotoxicity concentrations (CC50) were calculated using the CalcuSyn software ([Chou and Talalay, 1984]).

[7] = test system: HIV-1JR-FL Env mutant R579A pseudovirus; type: cell-based; conditions: compared with wild-type HIV-1JR-FL pseudovirus
[8] = test system: HIV-1 92UG029; assay: Anti-HIV-1 activity, primary strain 92UG029; type: cell-based; conditions: Human immunodeficiency virus 1, luciferase readout, mean ± SD
[9] = XTT assay, CHO-WT cells; type: cell-based; conditions: Chinese hamster
Protocol: as §2

[10] = test system: HIV-1JR-FL Env mutant W571A pseudovirus; type: cell-based; conditions: compared with wild-type HIV-1JR-FL pseudovirus
[11] = test system: HIV-1 Env-mediated fusion of CHO-WT cells with MT-2 cells; assay: HIV-1 Env-mediated cell-cell fusion (syncytium formation); type: cell-based; conditions: Human immunodeficiency virus 1, MT2; CHO-WT effector cells, MT-2 target cells; 48 h
Protocol: Here, a noninfectious cell–cell fusion assay was used to determine the effect of NSPD-12m on the early step of HIV-1 entry into a target cell as described previously ([Li et al., 2010]). Briefly, 1 × 10^5 CHO-WT cells expressing the HIV-1 envelope glycoprotein gp160 (as the effector cells) were preincubated with graded concentrations of NSPD-12m at 37°C for 30 min. Then, 1 × 10^5 MT-2 cells expressing the CD4 receptor and the CXCR4 coreceptor (as the target cells) were added and cocultured for another 48 h. The obvious syncytia could be counted under an inverted microscope (Nikon, Japan). Four fields per well were examined randomly. The EC50 values were calculated as described previously ([Chou and Talalay, 1984]).

[12] = test system: HIV-1JR-FL Env mutant Q577A pseudovirus; type: cell-based; conditions: compared with wild-type HIV-1JR-FL pseudovirus
[13] = test system: HIV-1 NL4-3(36G)N42T,N43K; conditions: T20-resistant NL4-3(36G)N42T,N43K; p24 ELISA; mean ± SD
[14] = test system: HIV-1SF162 (R5 strain) Env pseudotyped virus; assay: microbe, parasite or virus in culture; type: cell-based; conditions: Human immunodeficiency virus 1, single-cycle infection, luciferase

Cc1cc(/C=C2\SC(=S)N(Cc3ccccc3C(F)(F)F)C2=O)c(C)n1-c1ccc(O)c(C(=O)O)c1 [NSPD-12m]
IC50 ([1]; read-out: IC50): 2.34 ± 0.353 µM | IC90 ([1]; read-out: IC90): 5.27 ± 2.73 µM | IC50 [2]: 4.91 ± 0.13 µM | IC90 ([2]; read-out: IC90): 6.76 ± 1.56 µM | IC50 ([3]; read-out: IC50): 1.79 ± 0.238 µM | IC90 ([3]; read-out: IC90): 3.48 ± 1.09 µM | IC50 [4]: 10.8 ± 1.67 µM | IC90 [4]: 55.4 ± 16.9 µM | IC50 [5]: 23.7 ± 5.15 µM | IC90 [5]: 32.5 ± 5.42 µM | CC50 at 3 days [6]: 67.1 ± 11 µM | CC90 at 3 days [6]: 124 ± 70.2 µM | inhibitory activity against R579A mutant pseudovirus [7]: retained the inhibitory activity | IC50 [8]: 2.08 ± 0.041 µM | IC90 [8]: 2.48 ± 0.041 µM | CC50 at 3 days [9]: 60 ± 13.2 µM | CC90 at 3 days [9]: 74.6 ± 13.8 µM | inhibitory activity against W571A mutant pseudovirus [10]: retained the inhibitory activity | EC50 [11]: 14.4 ± 1.24 µM | inhibitory activity against Q577A mutant pseudovirus [12]: retained the inhibitory activity | IC50 [13]: 4.23 ± 1.92 µM | IC90 [13]: 29.7 ± 2.28 µM | EC50 [14]: ~19.7 µM

Source: paper PMC6688628, “N-Substituted Pyrrole Derivative 12m Inhibits HIV-1 Entry by Targeting Gp41 of HIV-1 Envelope Glycoprotein” (Frontiers in Pharmacology, 2019)
